Results: patent US20240315990A1, “Adelmidrol For Use In Diseases Characterized By Insufficient Agonism Of PPAR-GAMMA Receptor” (Epitech Group S.P.A., priority 2016, published 2024)

Key:
[1] = tested on: inflammatory cells in BAL fluid; assay: bleomycin-induced lung lesion, inflammatory cells in bronchoalveolar lavage (BAL) fluid; type: in vivo, CD1 male mice; conditions: BLM-treated mice, BAL seven days after induction
Procedure: (§1) CD1 male mice ((CD1(ICR) mice (25-35 g; Harlan Nossan, Italy) were accommodated in a controlled environment and fed with standard food and water.
(§2) Using a catheter (tracheotomy tube), the mice received a single intratracheal instillation of physiological solution (0.9%) or saline containing bleomycin sulfate (0.1 U/mouse) in a final volume of 100 μL, and the liquid was immediately followed by 300 μL of air in order to also ensure the distribution thereof in the distal airways.
Seven days after the induction of fibrosis, the mice were sacrificed and their trachea was immediately cannulated with an intravenous catheter made of polyethylene (Neo Delta Ven. 2, Delta Med, Viadana, Italy) equipped with a 1 mL 24-gauge syringe. The lungs were washed once with 0.5 mL of D-PBS (GIBCO, UK). In 95% of mice, the recovery volume exceeds 0.4 mL. The BAL fluid was centrifuged at 800 rpm, the surfactant was removed and the cell pellet was resuspended in PBS. The number of cells in the BAL fluid was obtained by counting on a hemocytometer in the presence of Trypan Blue. Cytospins were prepared from the cells resuspended in PBS. The slides were dried in dry air and then colored with Diff-Quick Set Stain (Diff-Quick, Baxter Scientific, Miami, FL). Using the optical microscopy, a total of 400 cells was examined from each sample in randomly chosen fields. […]

TNF-α and IL1β = assay: bleomycin-induced lung lesion, dosage of inflammatory cytokines TNF-α and IL1β; type: in vivo, CD1 male mice; conditions: BLM-treated mice
Procedure: as §1, §2
TNF-α and IL1β are also regarded as the biochemical markers of inflammation and fibrosis of the lung. The results obtained are shown in the chart in FIG. 9.

myeloperoxidase (MPO) = myeloperoxidase (MPO) activity in the bowel of DNBS-treated animals; type: in vivo, rat; conditions: Adelmidrol 10 mg/kg orally
Procedure: The determination of the activity of the enzyme myeloperoxidase (MPO), which is considered an important marker of neutrophil activity in the bowel, fully confirms the effect of Adelmidrol on the colonic mucosa. The test was carried out by the method described in the literature (Morampudi V. et al. Journal of Visualized Experiments—February 2014; 84:1-8) on DBNS-treated animals, not treated animals, or animals orally treated with Adelmidrol (10 mg/kg).
The results are shown in the chart in FIG. 4.

[2] = tested on: bleomycin-induced lung edema; assay: bleomycin-induced lung lesion, lung edema (wet vs dry lung weight); type: in vivo, CD1 male mice
Procedure: CD1 male mice ((CD1(ICR) mice (25-35 g; Harlan Nossan, Italy) were accommodated in a controlled environment and fed with standard food and water. Using a catheter (tracheotomy tube), the mice received a single intratracheal instillation of physiological solution (0.9%) or saline containing bleomycin sulfate (0.1 U/mouse) in a final volume of 100 μL, and the liquid was immediately followed by 300 μL of air in order to also ensure the distribution thereof in the distal airways. The weight of the wet lungs was calculated after 28 days upon injecting bleomycin by means of careful excision of the lung from the adjacent tissues. The lungs were exposed for 48 hours at 180° C. and the dry weight was then assessed. The lung water content was calculated as wet weight-to-dry weight ratio. In order to assess the degree of the existing lung edema, at the end of the experiment, even in untreated animals, the comparison of the wet lung weight to the lung weight after water removal was carried out. The results are shown in the chart in FIG. 6.

[3] = tested on: DNBS-induced bowel tissue lesion; assay: DNBS-induced bowel tissue lesion, microscope lesion score; type: in vivo; conditions: rat, DNBS 15 mg intrarectal, Adelmidrol 10 mg/kg per os in 2% CMC
Procedure: Rats were anesthetized with ethyl ether in order to ensure the animals' waking up after 4-5 minutes. 60 mg/mL DNBS was dissolved in 50% ethanol in water. An amount of 0.25 ml of alcoholic solution (containing 15 mg of DNBS) was instilled to each animal, using an 8 cm long intrarectal catheter made of silicone so as to reach […]. During the experiment, the possible ejection of the solution from the rectum when the animal awoke was carefully monitored, taking it into account in the final assessment. The assessment of the bowel lesion was performed by taking, upon sacrifice of the animal, the entire bowel which was adequately washed with physiological solution and immediately examined under a microscope. Adelmidrol was administered per os through a gastric cannula in an amount of 10 mg/kg dissolved in aqueous solution containing 2% CMC (carboxymethylcellulose). The bowel tissue lesion was quantized through microscope inspection by two different observers. […]

[4] = bleomycin-induced lung lesion, weight change in the animals; type: in vivo, CD1 male mice; conditions: mice, bleomycin (BLM) + Adelmidrol vs BLM + inert vehicle
Procedure: as §1, §2
All procedures related to the treatment of animals were performed in accordance with the guidelines approved by the Institutional Committee (IACUC) following the guidelines of the Association for Assessment and Accreditation of Laboratory Animal Care (AAALAC). While being monitored, the animals were inspected for any adverse effects produced by the lung lesion. An assessment of the water and food consumption and consequently of the body weight (analyzed daily by weighing the animals) was carried out (Mullane K M et al, 1985, supra).
The animals belonging to the group treated with bleomycin (BLM)+inert vehicle and those belonging to that treated with BLM and Adelmidrol in an inert vehicle were weighed, and the weight change was calculated on the 3rd and 8th day after the start of the treatment with BLM. The results are shown in the chart in FIG. 5.

Structure (SMILES): O=C(CCCCCCCC(=O)NCCO)NCCO [Adelmidrol, azelaic acid diethanolamide]
- number of macrophages, neutrophils and lymphocytes in BAL fluid (FIGS. 7 and 8) [1]: reduces the number of macrophages, neutrophils and lymphocytes in a very significant manner
- IL1β level in the lung (FIG. 9) (TNF-α and IL1β): considerably reduces the levels of both inflammatory cytokines
- TNF-α level in the lung (FIG. 9) (TNF-α and IL1β): considerably reduces the levels of both inflammatory cytokines
- MPO activity in the bowel, marker of neutrophil activity (FIG. 4) (myeloperoxidase (MPO)): anti-inflammatory effect on the bowel tissue
- difference in lung weight between fresh organ and dried organ (FIG. 6) ([2]; mice not treated with BLM): does not change the difference in lung weight between fresh organ and dried organ
- difference in lung weight between fresh organ and dried organ (FIG. 6) ([2]; mice treated with BLM and Adelmidrol vs BLM and inert vehicle): considerably lower
- bowel tissue lesion, score 0 to 8 by microscope inspection (FIG. 2, FIG. 3) [3]: important, significant protection of the colonic mucosa
- body weight change on the 3rd and 8th day after start of BLM (FIG. 5) [4]: significant body weight gain
